The source of these data is US7585941B2 (priority 2004, dated 2009).

Like-named read-outs stand apart in the source and are kept apart here.

In assay [1] the target is T1, rMOR-1 (Rattus norvegicus, UniProt P33535). Briefly: biochemical. Format: biochemical.
Protocol: (§1) Basal [^35S]GTPγS binding was assessed in membranes from cells stably transfected with the individual variants. The ability multiple concentrations of the indicated opioid to stimulate [^35S]GTPγS binding was determined. […] Results are the means ±S.E.M. of at least three independent determinations.
Assay [2] addresses rMOR-1 (no Exon 4) (Rattus norvegicus, UniProt P33535). The experiment in a line: biochemical. In kind it is biochemical.
Protocol: as §1
The target in assay [3] is T2, rMOR-1A (Rattus norvegicus, UniProt P33535). Briefly: biochemical. Format: biochemical.
Protocol: as §1
Assay [4] deals with T3, rMOR-1C1 (Rattus norvegicus, UniProt P33535). The experiment in a line: biochemical. In kind it is biochemical.
Protocol: as §1
Assay [5] addresses rMOR-1D (Rattus norvegicus, UniProt P33535, I238V). Briefly: biochemical. Format: biochemical.
Protocol: as §1
In assay [6] the test system is hMOR-1 variants. The conditions noted are these: for range of the maximal inhibitions among the variants: relative efficacy, Table 5.
For assay [7] the following is noted: as an analgesic and as a respiratory depressant; background statement; cited from earlier work.
The target of assay [8] is hMOR-1B2 (Homo sapiens, UniProt P35372). Briefly: biochemical. In kind it is binding.
Assay [9] concerns the target hMOR-1 (Homo sapiens, UniProt P35372). Briefly: biochemical. Format: binding.
Assay [10] deals with hMOR-1A (Homo sapiens, UniProt P35372). The experiment in a line: biochemical. Format: binding.
The target in assay [11] is hMOR-1B1 (Homo sapiens, UniProt P35372). In kind it is binding.
The target of assay [12] is hMOR-1B3 (Homo sapiens, UniProt P35372). Briefly: biochemical. Format: binding.
Assay [13] concerns the target hMOR-1B4 (Homo sapiens, UniProt P35372). Briefly: biochemical. Format: binding.
The target of assay [14] is hMOR-1Y (Homo sapiens, UniProt P35372). Briefly: biochemical. Format: binding.
Assay [15] addresses T1, rMOR-1. In kind it is binding.
The target in assay [16] is T4, rMOR-1 (no E4) (Rattus norvegicus, UniProt P33535).
T4 construct: rMOR-1 no E 4; expressed in transfected cells
The experiment in a line: biochemical. In kind it is binding.

Assay [17] deals with T2, rMOR-1A. The experiment in a line: biochemical. Format: binding.
Assay [18] addresses T3, rMOR-1C1. The experiment in a line: biochemical. In kind it is binding.
For assay [19], the target named is T5, rMOR-1D (Rattus norvegicus, UniProt P33535). Briefly: biochemical. In kind it is binding.
The target in assay [20] is T5, rMOR-1D. The experiment in a line: biochemical. Format: biochemical.
Protocol: as §1
Assay [21] concerns the target hMOR-1B4 (Homo sapiens, UniProt P35372, I109V). Briefly: biochemical. In kind it is binding.
Assay [22] addresses hMOR-1B5 (Homo sapiens, UniProt P35372). The following applies: cho cells.
Assay [23] deals with human MOR-1 variants.

`C[C@@H](NC(=O)[C@@H](N)Cc1ccc(O)cc1)C(=O)NCC(=O)N(C)[C@@H](Cc1ccccc1)C(=O)NCCO` [DAMGO, [D-Ala^2,MePhe^4,Gly(ol)^5]enkephalin]: the “Max Stim (%)” value in [1] (percent increase over basal binding, rMOR-1) came out at 233 ± 44%; in [2] (percent increase over basal binding, rMOR-1 (no Exon 4)) it was 196 ± 37%; in assay [3] (percent increase over basal binding, rMOR-1A) it was 176 ± 24%; in [4] (percent increase over basal binding, rMOR-1C1) it was 233 ± 45%; in assay [5] (percent increase over basal binding, rMOR-1D) it was 113 ± 22%. The “range of the maximal inhibitions among the variants” value in assay [6] is 63-100%.
For the compound `COc1ccc2c3c1O[C@H]1[C@@H](O)C=C[C@H]4[C@@H](C2)N(C)CC[C@@]341` [codeine], the “effectiveness orally relative to parenterally” value in assay [7] was “approximately 60%”.
Regarding Endomorphin 1, the “affinity for hMOR-1B2 compared to other variants (in words)” value in [8] is “relative lower affinities”. Besides, the EC50/Ki in assay [1] is on record as 3.4; in assay [2], 25.9; in assay [3], 2.3; in assay [4] it was 13.8; in [5] it was 25.6. The “Max Stim (%)” value in assay [1] worked out at 320 ± 23%; in assay [2], 189 ± 16%; in assay [3] it was 205 ± 34%; in assay [4], 377 ± 40%; in assay [5] it was 145 ± 29%.
What is called Ki is a measure of affinity in units of concentration, obtained from inhibition or displacement. What is called EC50 is the concentration that produces a half-maximal response. A lower EC50 goes with a more potent agent. Turning to `CC(C)C[C@H](NC(=O)[C@H](Cc1ccccc1)NC(=O)CNC(=O)[C@@H](CO)NC(=O)[C@@H](N)Cc1ccc(O)cc1)C(=O)N[C@H](C(=O)O)[C@@H](C)O` [DSLET, [D-Ser^2, Leu^5]enkephalin-Thr^6], the Ki amounted to 19.1 ± 5.8 nM in assay [9]; 19.7 ± 7.7 nM in [10]; 13.9 ± 4.9 nM in assay [11]; 34.4 ± 6.4 nM in assay [8]; 16.4 ± 2.8 nM in assay [12]; 22.3 ± 2 nM in assay [13]. Besides, the Ki in assay [14] is 15.4 ± 3.5 nM; in [15], 30.9 ± 1.9 nM; in assay [16] it was 24.2 ± 1.9 nM; in assay [17] it was 44.5 ± 5.1 nM; in assay [18], 45 ± 8.7 nM; in [19], 27.3 ± 7.3 nM. Besides, the EC50 in assay [1] was found to be 76 ± 17 nM; in assay [2], 690 ± 179 nM; in [3], 127 ± 45 nM; in assay [4], 253 ± 75 nM; in assay [20], 540 ± 129 nM. Also, the “Max Stim (%)” value turned out to be 251 ± 5% in assay [1]; 226 ± 15% in assay [2]; 206 ± 23% in [3]; 312 ± 19% in assay [4]; 187 ± 19% in assay [5].
Turning to Endomorphin 2, the “fold less potent in competing binding to hMOR-1” value in [9] is listed as 5- to 7 fold.
`CC[C@H](C)[C@H](NC(=O)[C@H](C)NC(=O)[C@H](CC(N)=O)NC(=O)[C@H](CCCCN)NC(=O)[C@H](Cc1ccccc1)NC(=O)[C@H](CC(C)C)NC(=O)[C@@H](NC(=O)[C@@H](NC(=O)[C@H](CC(C)C)NC(=O)[C@@H]1CCCN1C(=O)[C@@H](NC(=O)[C@H](CCC(N)=O)NC(=O)[C@H](CO)NC(=O)[C@H](CCCCN)NC(=O)[C@H](CCC(=O)O)NC(=O)[C@H](CO)NC(=O)[C@@H](NC(=O)[C@H](CCSC)NC(=O)[C@H](Cc1ccccc1)NC(=O)CNC(=O)CNC(=O)[C@@H](N)Cc1ccc(O)cc1)[C@@H](C)O)[C@@H](C)O)C(C)C)[C@@H](C)O)C(=O)N[C@H](C(=O)N[C@@H](CCCCN)C(=O)N[C@@H](CC(N)=O)C(=O)N[C@@H](C)C(=O)N[C@@H](Cc1ccc(O)cc1)C(=O)N[C@@H](CCCCN)C(=O)N[C@@H](CCCCN)C(=O)NCC(=O)N[C@@H](CCC(=O)O)C(=O)O)[C@@H](C)CC` [β-Endorphin]: in assay [8], the “affinity for hMOR-1B2 compared to other variants (in words)” value is “lower affinities”. In [21], the “affinity for hMOR-1B4 compared to other variants (in words)” value is on record as “lower affinities”. Besides, the “IC50 value variation between hMOR-1 and hMOR-1B5” value in [22] is on record as “over 16 fold”. The “variation of IC50 values among the variants” value in assay [6] (cAMP inhibition, among human variants) was 3- to 16 fold. The “range of the maximal inhibitions among the variants” value in assay [6] is 72-100%.
Consider `CC1(C)SSC(C)(C)[C@@H](NC(=O)[C@@H](N)Cc2ccc(O)cc2)C(=O)NCC(=O)N[C@@H](Cc2ccccc2)C(=O)N[C@H]1C(=O)O` [DPDPE, [D-Pen^2, D-Pen-^5]enkephalin], for which, in assay [23], the “competition of [3H]DAMGO binding (in words)” value is “inactive”.
